Consider 35 compounds from patent US20240308987A1, “SMALL MOLECULE INHIBITOR AGAINST NASOPHARYNGEAL CARCINOMA, PREPARATION METHOD AND APPLICATION THEREOF” (SHENZHEN BAY LABORATORY, priority 2021, published 2024).

This experiment deals with C666-1 cells. Put plainly: C666-1 Cell Viability Assay (Resazurin cytotoxicity test). Format: cell-based. The note with it: Homo sapiens, C6661, EB virus-positive C666-1 cells, 72 hours treatment, 100-0.78 micromole/L, read-out: Inhibitory Rate. The essentials: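 EBV-positive nasopharyngeal carcinoma C666-1 cells, 5×10^3 per well, were grown 24 h, then exposed to compound for 72 h at 37 °C (8-point two-fold dilutions, final 100–0.78 µM). Viability was read by resazurin reduction fluorescence after 3 h; EC50 came from the fitted inhibition curve.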

With `COC(=O)c1cccc(C#Cc2ccc(NC(=O)Nc3cccnc3)cc2)c1-c1cccc(OCCO)c1` [Example 57, methyl 3′-(2-hydroxyethoxy)-6-((4-(3-(pyridin-3-yl)ureido)phenyl)ethynyl)-[1,1′-biphenyl]-2-carboxylate], the EC50 was 1 to 10 µM.
Under `COC(=O)c1cccc(N2CC(Oc3ccc(COc4ccncc4)cc3)C2)c1-n1cccc1` [Example 8, methyl 3-(3-(4-((pyridin-4-yloxy)methyl)phenoxy)azetidin-1-yl)-2-(1H-pyrrol-1-yl) benzoate] stands 10 to 50 µM; under `O=C(O)c1cccc(N2CC(Oc3ccc(/C=C/c4cccnc4)cc3)C2)c1-c1ccccc1` [Example 36a, (E)-6-(3-(4-(2-(pyridin-3-yl)vinyl)phenoxy)azetidin-1-yl)-[1,1′-biphenyl]-2-carboxylic acid], 10 to 50 µM.
For `O=C(Nc1ccc(C#Cc2cccc(C(=O)O)c2-c2ccccc2)cc1)Nc1cccnc1` [Example 58a, 6-((4-(3-(pyridin-3-yl)ureido)phenyl)ethynyl)-[1,1′-biphenyl]-2-carboxylic acid], the EC50 was in the range of 1 to 10 µM.
`O=C(O)c1cccc(N2CC(Oc3ccc(COc4ncccn4)cc3)C2)c1-n1cccc1` [Example 11a, 3-(3-(4-((pyrimidin-2-yloxy)methyl)phenoxy)azetidin-1-yl)-2-(1H-pyrrol-1-yl) benzoic acid]: the EC50 is more than 50 µM.
As to `COC(=O)c1cccc(N2CC(Oc3ccc(NC(=O)Nc4cccnc4)cc3)C2)c1-n1cccc1` [Example 34, methyl 3-(3-(4-(3-(pyridin-3-yl)ureido)phenoxy)azetidin-1-yl)-2-(1H-pyrrol-1-yl) benzoate], the EC50 is less than 1 µM.
Take `COC(=O)c1cccc(N2CC(Oc3ccc(COc4cccnc4)cc3)C2)c1-c1cccc(Cl)c1` [Example 18, methyl 3′-chloro-6-(3-(4-((pyridin-3-yloxy)methyl)phenoxy)azetidin-1-yl)-[1,1′-biphenyl]-2-carboxylate]: the EC50 is 1 to 10 µM.
Regarding `O=C(Cc1cccnc1)Nc1ccc(OC2CN(c3ccccc3-c3ccccc3)C2)cc1` [Example 45e, N-(4-((1-([1,1′-biphenyl]-2-yl)azetidin-3-yl)oxy)phenyl)-2-(pyridin-3-yl)acetamide], the EC50 lay within 10 to 50 µM.
Under `O=C(Cc1cccnc1)Nc1ccc(OC2CN(c3cccc(C(=O)NO)c3-c3ccccc3)C2)cc1` [Example 45b, N-hydroxy-6-(3-(4-(2-(pyridine-3-yl)acetamido)phenoxy)azetidin-1-yl)-[1,1′-biphenyl]-2-carboxamide] stands less than 1 µM; under `O=C(O)c1cccc(N2CC(Oc3ccc(COc4cnccn4)cc3)C2)c1-n1cccc1` [Example 13a, 3-(3-(4-((pyrazin-2-yloxy)methyl)phenoxy)azetidin-1-yl)-2-(1H-pyrrol-1-yl) benzoic acid], more than 50 µM.
On to `O=C(Nc1ccc(OC2CN(c3cccc(C(=O)O)c3)C2)cc1)Nc1cccnc1` [Example 50a, 3-(3-(4-(3-(pyridin-3-yl)ureido)phenoxy)azetidin-1-yl) benzoic acid], for which the EC50 was in the range of 1 to 10 µM.
With `COC(=O)c1cccc(N2CC(Oc3ccc(COc4cccnc4)cc3)C2)c1-c1ccccc1` [Example 17, methyl 6-(3-(4-((pyridin-3-yloxy)methyl)phenoxy)azetidin-1-yl)-[1,1′-biphenyl]-2-carboxylate], the EC50 lay within 1 to 10 µM.
With `O=C(O)c1cccc(N2CC(Oc3ccc(COc4cnc5ccccc5c4)cc3)C2)c1-n1cccc1` [Example 9a, 2-(1H-pyrrol-1-yl)-3-(3-(4-((quinolin-3-yloxy)methyl)phenoxy)azetidin-1-yl) benzoic acid], the EC50 is more than 50 µM.
Take `O=C(Nc1ccc(OC2CN(c3cccc(C(=O)NO)c3-c3cccc(Cl)c3)C2)cc1)Nc1cccnc1` [Example 41b, 3′-chloro-N-hydroxy-6-(3-(4-(3-(pyridin-3-yl)ureido)phenoxy)azetidin-1-yl)-[1,1′-biphenyl]-2-carboxamide]: the EC50 is less than 1 µM.
With `O=C(O)c1cccc(N2CC(Oc3ccc(OCc4cccnc4)cc3)C2)c1-n1cccc1` [Example 24a, 3-(3-(4-(pyridin-3-ylmethoxy)phenoxy)azetidin-1-yl)-2-(1H-pyrrol-1-yl) benzoic acid], the EC50 fell in the range of 10 to 50 µM.
On to `O=C(NO)c1cccc(N2CC(Oc3ccc(COc4cccnc4)cc3)C2)c1-c1ccccc1` [Example 17b, N-hydroxy-6-(3-(4-((pyridin-3-yloxy)methyl)phenoxy)azetidin-1-yl)-[1,1′-biphenyl]-2-carboxamide], for which the EC50 lay in the range of 1 to 10 µM.
Turning to `COc1cncc(OCc2ccc(OC3CN(c4cccc(C(=O)O)c4-n4cccc4)C3)cc2)c1` [Example 6a, 3-(3-(4-(((5-methoxypyridin-3-yl)oxy)methyl)phenoxy)azetidin-1-yl)-2-(1H-pyrrol-1-yl) benzoic acid], the EC50 was more than 50 µM.
For the compound `COC(=O)c1cccc(N2CC(Oc3ccc(NC(=O)Cc4cccnc4)cc3)C2)c1-n1cccc1` [Example 51, methyl 3-(3-(4-(2-(pyridin-3-yl)acetamido)phenoxy)azetidin-1-yl)-2-(1H-pyrrol-1-yl) benzoate], the EC50 was less than 1 µM.
Regarding `O=C(Nc1ccc(OC2CN(c3cccc(C(=O)O)c3-c3ccccc3)C2)cc1)Nc1cccnc1` [Example 42a, 6-(3-(4-(3-(pyridin-3-yl)ureido)phenoxy)azetidin-1-yl)-[1,1′-biphenyl]-2-carboxylic acid], the EC50 is 1 to 10 µM.
Regarding `COC(=O)c1cccc(N2CC(Oc3ccc(COc4ccsn4)cc3)C2)c1-n1cccc1` [Example 33, methyl 3-(3-(4-((isothiazol-3-yloxy)methyl)phenoxy)azetidin-1-yl)-2-(1H-pyrrol-1-yl) benzoate], the EC50 was more than 50 µM.
Turning to `COC(=O)c1cccc(N2CC(Oc3ccc(NC(=O)Cc4cccnc4)cc3)C2)c1C` [Example 53, methyl 2-methyl-3-(3-(4-(2-(pyridin-3-yl)acetamido)phenoxy)azetidin-1-yl) benzoate], the EC50 fell in the range of 10 to 50 µM.
On to `O=C(Nc1ccc(OC2CN(c3cccc(C(=O)NO)c3-c3ccccc3)C2)cc1)Nc1cccnc1` [Example 42b, N-hydroxy-6-(3-(4-(3-(pyridin-3-yl)ureido)phenoxy)azetidin-1-yl)-[1,1′-biphenyl]-2-carboxamide], for which the EC50 was less than 1 µM.
`c1cncc(OCc2ccc(OC3CN(c4ccccc4-n4cccc4)C3)cc2)c1` [Example 1g, 3-((4-((1-(2-(1H-pyrrole-1-yl)phenyl)azetidin-3-yl)oxy)benzyl)oxy) pyridine]: the EC50 was in the range of 10 to 50 µM.
For the compound `Cc1cncc(OCc2ccc(OC3CN(c4cccc(C(=O)O)c4-n4cccc4)C3)cc2)c1` [Example 3a, 3-(3-(4-((5-methylpyridin-3-yloxy)methyl)phenoxy)azetidin-1-yl)-2-(1H-pyrrol-1-yl) benzoic acid], the EC50 is more than 50 µM.
Regarding `COC(=O)c1cccc(N2CC(Oc3ccc(NC(=O)Cc4cccnc4)cc3)C2)c1-c1ccccc1` [Example 45, methyl 6-(3-(4-(2-(pyridin-3-yl)acetamido)phenoxy)azetidin-1-yl)-[1,1′-biphenyl]-2-carboxylate], the EC50 was less than 1 µM.
`O=C(NO)c1cccc(N2CC(Oc3ccc(COCc4cccnc4)cc3)C2)c1-n1cccc1` [Example 27b, N-Hydroxy-3-(3-(4-((pyridin-3-ylmethoxy)methyl)phenoxy)azetidin-1-yl)-2-(1H-pyrrol-1-yl)benzamide]: the EC50 was less than 1 µM.
Under `O=C(Cc1cccnc1)Nc1ccc(OC2CN(c3cccc(C(=O)O)c3-n3cccc3)C2)cc1` [Example 51a, 3-(3-(4-(2-(pyridin-3-yl)acetamido)phenoxy)azetidin-1-yl)-2-(1H-pyrrol-1-yl) benzoic acid] stands less than 1 µM; under `O=C(Cc1cccnc1)Nc1ccc(OC2CN(c3cccc(C(=O)O)c3-c3ccccc3)C2)cc1` [Example 45a, 6-(3-(4-(2-(pyridin-3-yl)acetamido)phenoxy)azetidin-1-yl)-[1,1′-biphenyl]-2-carboxylic acid], 10 to 50 µM.
In the case of `O=C(Cc1ccc(C#Cc2cccc(C(=O)O)c2-c2ccc3cc[nH]c3c2)cc1)Nc1cccnc1` [Example 61a, 2-(1H-indol-6-yl)-3-((4-(2-oxo-2-(pyridin-3-ylamino)ethyl)phenyl)ethynyl) benzoic acid], the EC50 is less than 1 µM.
As to `COC(=O)c1cccc(N2CC(Oc3ccc(COc4cccnc4)cc3C)C2)c1-n1cccc1` [Example 16, methyl 3-(3-(2-methyl-4-((pyridin-3-yloxy)methyl)phenoxy)azetidin-1-yl)-2-(1H-pyrrol-1-yl) benzoate], the EC50 was 10 to 50 µM.
Consider `O=C(O)c1cccc(N2CC(Oc3ccc(Cn4ccnc4)cc3)C2)c1-n1cccc1` [Example 56a, 3-(3-(4-((1H-imidazol-1-yl)methyl)phenoxy)azetidin-1-yl)-2-(1H-pyrrol-1-yl) benzoic acid], for which the EC50 is 10 to 50 µM.
Take `COC(=O)c1cccc(N2CC(Oc3ccc(CNc4cccnc4)cc3)C2)c1-n1cccc1` [Example 23, methyl 3-(3-(4-((pyridin-3-ylamino)methyl)phenoxy)azetidin-1-yl)-2-(1H-pyrrol-1-yl) benzoate]: the EC50 is 10 to 50 µM.
In the case of `COC(=O)c1cccc(N2CC(Oc3ccc(NC(=O)Nc4cccc(C(F)(F)F)c4)cc3)C2)c1-c1cccc(Cl)c1` [Example 37, methyl 3′-chloro-6-(3-(4-(3-(3-(trifluoromethyl)phenyl)ureido)phenoxy)azetidin-1-yl)-[1,1′-biphenyl]-2-carboxylate], the EC50 lay in the range of 10 to 50 µM.
Under `COC(=O)c1cccc(N2CC(Oc3cccc(COc4cccnc4)c3)C2)c1-n1cccc1` [Example 21, methyl 3-(3-(3-((pyridin-3-yloxy)methyl)phenoxy)azetidin-1-yl)-2-(1H-pyrrol-1-yl) benzoate] stands 10 to 50 µM; under `COC(=O)c1cccc(N2CC(Oc3ccc(COc4cccnc4)c(Cl)c3)C2)c1-n1cccc1` [Example 19, methyl 3-(3-(3-chloro-4-((pyridin-3-yloxy)methyl)phenoxy)azetidin-1-yl)-2-(1H-pyrrol-1-yl) benzoate], 10 to 50 µM.
